Patent US10167292B2, “Benzodiazepines as bromodomain inhibitors” (Catalyst Therapeutics Pty Ltd, priority 2015, dated 2019)

What was measured:
BRD-3 (Domain 1) = BRD-3 (Domain 1) (Homo sapiens (Human), UniProt Q15059); assay: AlphaScreen BRD binding assay, BRD-3 (Domain 1); settings: acetyl-histone H4 peptide 2.5 nM, protein 80 nM
Procedure: (§1) Biological Characterization Assay Conditions Binding Assay
BRD binding and inhibition was assessed by measuring the interaction of biotinylated acetyl-histone H4 peptide (Anaspec #64989) with the BRD target protein utilising AlphaScreen® technology (Perkin Elmer). In a white 384-well low volume plate (Greiner #784076), 100 nL of compound series in DMSO (0.5% final concentration) was added to the BRD target protein (80 nM final). After 30 min incubation at RT, H4 peptide was added to a final concentration of 2.5 nM. AlphaScreen streptavidin donor beads and AlphaScreen nickel chelate acceptor beads were added to a final concentration of 10 ug/mL each and allowed to incubate in a darkened environment for 1 h at RT. Plates were read on an EnVision plate reader (Perkin Elmer) and IC50's calculated using a four parameter non-linear curve fit.
These conditions are identical for all BRDs screened except BRD2D2 which uses 160 nM protein and 1.25 nM peptide.

BRD-4 (Domain 1) = BRD-4 (Domain 1) (Homo sapiens (Human), UniProt O60885); assay: AlphaScreen BRD binding assay, BRD-4 (Domain 1); settings: acetyl-histone H4 peptide 2.5 nM, protein 80 nM
Procedure: as §1
(§2) AlphaScreen streptavidin donor beads and AlphaScreen nickel chelate acceptor beads were added to a final concentration of 10 ug/mL each and allowed to incubate in a darkened environment for 1 h at RT. Plates were read on an EnVision plate reader (Perkin Elmer) and IC50's calculated using a four parameter non-linear curve fit.

BRD-4 (Domain 2) = BRD-4 (Domain 2) (Homo sapiens (Human), UniProt O60885); assay: AlphaScreen BRD binding assay, BRD-4 (Domain 2); settings: acetyl-histone H4 peptide 2.5 nM, protein 80 nM
Procedure: as §1, §2

HL-60 = assay: Cell proliferation assay (CellTiter-Glo), HL-60; assay type: cell-based; settings: Homo sapiens, HL-60 cells, 72 h
Procedure: (§3) The cells were prepared in the required fashion (suspension or adherent). The cells were initially washed once in the culture medium that they would be finally treated in. Following this 10 ml of the test medium was added and the cells. The mixture was pipetted gently several times.
(§4) The cells were counted and then the volume was spun down to the volume necessary for the total number of cells needed. The cells were then resuspended in the appropriate test medium to the desired concentration. In general, the final concentration of non-adherent cells was 2×10^5 cells/ml i.e. 10,000 cells per 50 μ1. Once the desired concentration had been reached, 50 µl of the cells were added to the appropriate wells and the cells were incubated for 72 h at 37° C.
(§5) CellTiter-Glo Luminescent Assay (Kit G7571—See Promega's Instruction Manual for Additional Details):
(§6) Both reagents were pre-warmed to RT. The buffer was thawed in a 37° C. water bath until it had just completely thawed. It was then left on a bench at RT for at least 30 min.
(§7) Following this the substrate and buffer were mixed together. To ensure that the substrate was dissolved, the mixture was inverted several times.
(§8) The cell culture plates were removed from the incubator and were then allowed to adjust to RT for at least 30 min.
(§9) Afterwards 40 μL of the reagent was added to 100 μL of the culture medium. […] The plates were then incubated for 10 min on the bench. The luminescence could then be read using a luminescence plate reader.

BRD-2 (Domain 2) = BRD-2 (Domain 2) (Homo sapiens (Human), UniProt P25440); assay: AlphaScreen BRD binding assay, BRD-2 (Domain 2); settings: 160 nM protein and 1.25 nM peptide
BRD-2 (Domain 2), sequence (P25440 344-453): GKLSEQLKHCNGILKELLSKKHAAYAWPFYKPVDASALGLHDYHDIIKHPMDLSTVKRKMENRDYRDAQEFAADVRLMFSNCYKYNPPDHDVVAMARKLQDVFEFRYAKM
Procedure: as §1, §2

BRD-2 (Domain 1) = BRD-2 (Domain 1) (Homo sapiens (Human), UniProt P25440); assay: AlphaScreen BRD binding assay, BRD-2 (Domain 1); settings: acetyl-histone H4 peptide 2.5 nM, protein 80 nM
BRD-2 (Domain 1), sequence (P25440 74-180): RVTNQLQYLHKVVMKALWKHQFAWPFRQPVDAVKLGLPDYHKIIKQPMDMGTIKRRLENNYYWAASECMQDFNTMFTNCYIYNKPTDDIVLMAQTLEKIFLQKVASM
Procedure: as §1, §2

MV4; 11 = assay: Cell proliferation assay (CellTiter-Glo), MV4;11; assay type: cell-based; settings: Homo sapiens, MV4;11 cells, 72 h
Procedure: as §3, §4, §5, §6, §7, §8, §9

BRD-3 (Domain 1), sequence (Q15059 34-140): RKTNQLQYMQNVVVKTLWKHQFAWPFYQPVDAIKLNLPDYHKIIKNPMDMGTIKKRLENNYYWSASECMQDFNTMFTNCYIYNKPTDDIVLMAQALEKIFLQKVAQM

| SMILES | IC50 (BRD-3 (Domain 1)) | IC50 (BRD-4 (Domain 1)) | IC50 (BRD-4 (Domain 2)) | IC50 (HL-60) | IC50 (BRD-2 (Domain 2)) | IC50 (BRD-2 (Domain 1)) | IC50 (MV4; 11) |
| --- | --- | --- | --- | --- | --- | --- | --- |
| Cc1nnn2c1-c1ccccc1N(c1ccccc1)CC2 [Example 5, 1-methyl-7-phenyl-6,7-dihydro-5H-benzo[f][1,2,3]triazolo[1,5-d][1,4]diazepine] |  | < 100 nM | < 100 nM |  |  |  |  |
| Cc1nnn2c1-c1ccccc1N(c1ccc(Cl)cc1)CC2 [Example 11, 7-(4-chlorophenyl)-1-methyl-6,7-dihydro-5H-benzo[f][1,2,3]triazolo[1,5-d][1,4]diazepine] |  |  |  | 1000 to 5000 nM |  |  |  |
| Cc1nnn2c1-c1ccc(-c3cnc(N)nc3)cc1N(c1ccc(Cl)cc1)CC2 [Example 12, 5-(7-(4-chlorophenyl)-1-methyl-6,7-dihydro-5H-benzo[f][1,2,3]triazolo[1,5-d][1,4]diazepin-9-yl)pyrimidin-2-amine] |  |  |  | < 1000 nM |  |  |  |
| Cc1nnn2c1-c1ccccc1N(c1ccc(Cl)cc1)C[C@@H]2C [Example 13, 7-(4-chlorophenyl)-1,5-dimethyl-6,7-dihydro-5H-benzo[f][1,2,3]triazolo[1,5-d][1,4]diazepine] |  |  |  | < 1000 nM | < 100 nM | < 100 nM |  |
| Cc1nnn2c1-c1ccc(Br)cc1N(c1ccc(Cl)cc1)CC2C (stereo not shown) [Example 14, 9-Bromo-7-(4-chlorophenyl)-1,5-dimethyl-6,7-dihydro-5H-benzo[f][1,2,3]triazolo[1,5-d][1,4]diazepine] |  |  |  | < 1000 nM |  |  |  |
| Cc1nnn2c1-c1ccccc1N(c1ccc(Cl)cc1)C[C@H]2C [Example 16, (5R)-7-(4-chlorophenyl)-1,5-dimethyl-6,7-dihydro-5H-benzo[f][1,2,3]triazolo[1,5-d][1,4]diazepine] |  |  |  | < 1000 nM | < 100 nM | < 100 nM |  |
| Cc1nnn2c1-c1ccc(Cn3cccn3)cc1N(c1ccc(Cl)cc1)CC2 [Example 20, 9-((1H-pyrazol-1-yl)methyl)-7-(4-chlorophenyl)-1-methyl-6,7-dihydro-5H-benzo[f][1,2,3]triazolo[1,5-d][1,4]diazepine] | < 100 nM | < 100 nM | < 100 nM |  |  |  |  |
| Cc1nnn2c1-c1ccccc1N(c1ccc(Cl)cc1)CC2CCO (stereo not shown) [Example 21, 2-(7-(4-chlorophenyl)-1-methyl-6,7-dihydro-5H-benzo[f][1,2,3]triazolo[1,5-d][1,4]diazepin-5-yl)ethanol] | < 100 nM | < 100 nM | < 100 nM | 1000 to 5000 nM | < 100 nM | 100 to 1000 nM |  |
| Cc1nnn2c1-c1ccccc1N(c1cccc(Br)c1)CC2 [Example 22, 7-(3-Bromophenyl)-1-methyl-6,7-dihydro-5H-benzo[f][1,2,3]triazolo[1,5-d][1,4]diazepine] | < 100 nM | < 100 nM | < 100 nM | 1000 to 5000 nM | < 100 nM | 100 to 1000 nM |  |
| COC(=O)c1ccc2c(c1)N(c1ccc(Cl)cc1)CCn1nnc(C)c1-2 [Example 31, methyl 7-(4-chlorophenyl)-1-methyl-5,6-dihydrotriazolo[1,5-d][1,4]benzodiazepine-9-carboxylate] |  |  |  | < 1000 nM |  |  | < 1000 nM |

The next lines start with results.

| IC50 (BRD-3 (Domain 1)) | IC50 (BRD-4 (Domain 1)) | IC50 (BRD-4 (Domain 2)) | IC50 (HL-60) | IC50 (BRD-2 (Domain 2)) | IC50 (BRD-2 (Domain 1)) | SMILES | IC50 (MV4; 11) |
| --- | --- | --- | --- | --- | --- | --- | --- |
| < 100 nM |  |  |  |  |  | Cc1nnn2c1-c1ccc(C(=O)NC(C)c3ccc(F)cc3)cc1N(c1ccc(Cl)cc1)CC2 (stereo in doubt) [Example 33, 7-(4-chlorophenyl)-N—((R)-1-(4-fluorophenyl)ethyl)-1-methyl-6,7-dihydro-5H-benzo[f][1,2,3]triazolo[1,5-d][1,4]diazepine-9-carboxamide] |  |
| < 100 nM | < 100 nM | < 100 nM | 1000 to 5000 nM | < 100 nM | 100 to 1000 nM | C=Cc1cccc(N2CCn3nnc(C)c3-c3ccccc32)c1 [Example 23, 1-Methyl-7-(3-vinylphenyl)-6,7-dihydro-5H-benzo[f][1,2,3]triazolo[1,5-d][1,4]diazepine] |  |
| < 100 nM | < 100 nM | < 100 nM | 1000 to 5000 nM | < 100 nM | < 100 nM | Cc1nnn2c1-c1ccccc1N(c1cccc(C(O)CO)c1)CC2 (stereo not shown) [Example 24, 1-(3-(1-methyl-5H-benzo[f][1,2,3]triazolo[1,5-d][1,4]diazepin-7(6H)-yl)phenyl)ethane-1,2-diol] |  |
|  | 100 to 1000 nM | 100 to 1000 nM |  | 100 to 1000 nM | > 1000 nM | FC(F)c1nnn2c1-c1ccccc1N(c1ccc(Cl)cc1)CC2 [Example 29, 7-(4-chlorophenyl)-1-(difluoromethyl)-6,7-dihydro-5H-benzo[f][1,2,3]triazolo[1,5-d][1,4]diazepine] |  |
| 100 to 1000 nM | 100 to 1000 nM | 100 to 1000 nM | 1000 to 5000 nM | 100 to 1000 nM | 100 to 1000 nM | Cc1nnn2c1-c1ccc(CCN3CCOCC3)cc1N(c1ccc(Cl)cc1)CC2 [Example 30, 4-(2-(7-(4-chlorophenyl)-1-methyl-6,7-dihydro-5H-benzo[f][1,2,3]triazolo[1,5-d][1,4]diazepin-9-yl)ethyl)morpholine] |  |
|  | < 100 nM | < 100 nM |  |  |  | Cc1nnn2c1-c1ccc(C(=O)NCc3ccccc3)cc1N(c1ccc(Cl)cc1)CC2 [Example 37, N-benzyl-7-(4-chlorophenyl)-1-methyl-6,7-dihydro-5H-benzo[f][1,2,3]triazolo[1,5-d][1,4]diazepine-9-carboxamide] |  |
| < 100 nM |  |  |  | < 100 nM | 100 to 1000 nM | Cc1nnn2c1-c1ccc(C(=O)NC(c3ccccc3)c3ccccc3)cc1N(c1ccc(Cl)cc1)CC2 [Example 38, N-benzhydryl-7-(4-chlorophenyl)-1-methyl-6,7-dihydro-5H-benzo[f][1,2,3]triazolo[1,5-d][1,4]diazepine-9-carboxamide] |  |
|  | < 100 nM | < 100 nM |  |  |  | Cc1nnn2c1-c1ccc(C(N)=O)cc1N(c1ccc(Cl)cc1)CC2 [Example 42, 7-(4-chlorophenyl)-1-methyl-6,7-dihydro-5H-benzo[f][1,2,3]triazolo[1,5-d][1,4]diazepine-9-carboxamide] |  |
|  | < 100 nM | < 100 nM |  | < 100 nM | < 100 nM | Cc1nnn2c1-c1ccc(C(=O)NO)cc1N(c1ccc(Cl)cc1)CC2 [Example 44, 7-(4-Chlorophenyl)-N-hydroxy-1-methyl-6,7-dihydro-5H-benzo[f][1,2,3]triazolo[1,5-d][1,4]diazepine-9-carboxamide] |  |
|  | < 100 nM | < 100 nM |  |  |  | Cc1nnn2c1-c1ccc(C#N)cc1N(c1ccc(Cl)cc1)CC2 [Example 47, 7-(4-chlorophenyl)-1-methyl-6,7-dihydro-5H-benzo[f][1,2,3]triazolo[1,5-d][1,4]diazepine-9-carbonitrile] |  |
|  | < 100 nM | < 100 nM |  | < 100 nM | < 100 nM | CON(C)C(=O)c1ccc2c(c1)N(c1ccc(Cl)cc1)CCn1nnc(C)c1-2 [Example 48, 7-(4-Chlorophenyl)-N-methoxy-N, 1-dimethyl-6,7-dihydro-5H-benzo[f][1,2,3]triazolo[1,5-d][1,4]diazepine-9-carboxamide] |  |
|  | < 100 nM | < 100 nM |  |  |  | Cc1nnn2c1-c1ccc(C(O)C(F)(F)F)cc1N(c1ccc(Cl)cc1)CC2 (stereo not shown) [Example 50, 1-(7-(4-Chlorophenyl)-1-methyl-6,7-dihydro-5H-benzo[f][1,2,3]triazolo[1,5-d][1,4]diazepin-9-yl)-2,2,2-trifluoroethanol] |  |
